The target of the test is T1, 3-oxo-5-alpha-steroid 4-dehydrogenase 1 (Rattus norvegicus, UniProt P24008).
T1 sequence (P24008 whole entry): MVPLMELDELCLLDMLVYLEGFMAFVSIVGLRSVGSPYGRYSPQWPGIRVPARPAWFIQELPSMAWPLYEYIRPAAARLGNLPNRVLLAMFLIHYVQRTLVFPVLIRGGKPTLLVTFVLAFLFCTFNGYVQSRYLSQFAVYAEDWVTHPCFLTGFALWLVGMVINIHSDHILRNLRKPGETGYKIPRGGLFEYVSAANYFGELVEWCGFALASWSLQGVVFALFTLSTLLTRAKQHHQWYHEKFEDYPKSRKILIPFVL
Kind of test: Compound was tested for its inhibitory potency against rat Steroid 5-alpha-reductase type 1 expressed in transformed yeast Saccharomyces cerevisiae.

Experimental findings from ChEMBL document CHEMBL1151037, “Synthesis of a chemiluminescent probe useful for the purification of steroid 5-reductase” (Bioorg Med Chem Lett, 1996) are described below.

Structures are written as SMILES.

For orientation: IC50 means the concentration that inhibits the measured activity by half. Low readings indicate greater potency, high ones weaker potency. `CCN(CCCCNC(=O)[C@H]1CCC2C3CCC4NC(=O)C=C[C@]4(C)C3CC[C@@]21C)c1ccc2c(=O)[nH][nH]c(=O)c2c1` (some centres not stated) displayed an IC50 of 0.5 µM.

The molecule `CC(C)(C)NC(=O)[C@H]1CC[C@H]2[C@@H]3CC[C@H]4NC(=O)C=C[C@]4(C)[C@H]3CC[C@]12C` [FINASTERIDE] gave an IC50 of 40 µM.
